The text below walks through data of PMC9182086, “Identification of New Non-BBB Permeable Tryptophan Hydroxylase Inhibitors for Treating Obesity and Fatty Liver Disease” (Molecules, 2022).

Data set [1] addresses T1, TPH1 (Homo sapiens, UniProt P17752).
T1 construct: purchased BPS Bioscience
T1 sequence (P17752 1-444): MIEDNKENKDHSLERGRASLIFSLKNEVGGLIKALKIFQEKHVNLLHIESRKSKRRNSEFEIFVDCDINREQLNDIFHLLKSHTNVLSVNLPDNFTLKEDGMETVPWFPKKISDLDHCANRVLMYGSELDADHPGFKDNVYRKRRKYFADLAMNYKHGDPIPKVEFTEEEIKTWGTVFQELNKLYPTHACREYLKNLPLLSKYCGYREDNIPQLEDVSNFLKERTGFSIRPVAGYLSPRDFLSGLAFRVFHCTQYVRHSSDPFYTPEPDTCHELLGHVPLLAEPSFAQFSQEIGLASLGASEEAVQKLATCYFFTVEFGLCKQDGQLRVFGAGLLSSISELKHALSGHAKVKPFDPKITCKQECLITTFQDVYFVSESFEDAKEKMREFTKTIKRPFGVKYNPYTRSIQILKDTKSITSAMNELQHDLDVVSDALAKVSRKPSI
Description: TPH1 enzyme inhibition, in vitro screening (BPS Bioscience kit, fluorescence). The format is biochemical. As to the method: Consequently, the core structure of thienopyrimidine tyrosine (derivative 6) was selected as the starting point for the synthesis, evaluating the structure-activity relationships (SAR), and optimization of TPH1 inhibitors. […]
In vitro screening was performed as described previously [PMID: 33417443]. Briefly, TPH1 enzyme activity was measured with a commercially available kit (BPS Bioscience). Compounds were dissolved in DMSO (Sigma). Then, 10 μL of the compound was dispensed into a 96-well microplate, and 40 μL of the TPH1 enzyme solution (320 ng enzyme/reaction) was added. Then, 50 μL of the TPH1 reaction solution was added, and the microplate was sealed with aluminum foil. The microplate was immediately cooled to 4 °C, gently shaken, and incubated for 4 h. After a defined time, 10 μL of the TPH1 quench solution was added. Then, the fluorescence was measured with a Flexstation3 microplate reader at 300 nm for excitation and 360 nm for emission. All experiments were performed in triplicate.

Data set [2] is described as follows: PAMPA-BBB permeability. It counts as in vitro ADME. The following applies: high permeation predicted > 4.0, low < 2.0, read-out: BBB Permeability Pe. An excerpt: Based on the in vitro data, compound 18i was selected for […] the in vitro BBB permeability. Several in vitro methods and computational models have been used in drug discovery to predict the potential of a drug to penetrate the BBB [15, 16, 17, 18, 19, 20, 21]. The parallel artificial membrane permeation assay (PAMPA) was used to evaluate the BBB permeability of the selected compounds. The PAMPA-BBB assay is advantageous because it predicts passive penetration at the blood-brain barrier with high success, high throughput, low cost, and high reproducibility.
PAMPA was conducted with a […] PAMPA sandwich (pION, Inc., Billerica, MA, USA) consisting of a 96-well filter plate (0.45 μm PVDF membrane) and a 96-well polystyrene donor plate. Test compounds were prepared in 10 mM stock solution with DMSO and diluted to a working solution of 50 μM concentration using a phosphate buffered saline (PBS) buffer. To form lipid membranes in the acceptor plate, 5 μL GIT-0 lipid (pION, Inc., Billerica, MA, USA) was dropped and semi-dried on the bottom side of the 0.45 μm PVDF membrane. The donor plate was prepared by the addition of 200 μL of working solution. […] To acquire the peak area of range from 230 to 500 nm, absorbance scans of PBS, acceptor, donor, and working solution were carried out with an Epoch ELISA reader (BioTek Instruments Inc., Winooski, VT, USA). […]

For data set [3], the system named is high-fat diet (HFD) fed mice. Also noted: method as in PMID 25864946, PMID 25485911. The following applies: cited from earlier work.

One may read the inhibition as the relative decrease from the control value, in per cent. Regarding `NC(Cc1ccc(Cl)cc1)C(=O)O` (stereo not shown) [pCPA, para-chlorophenylalanine, reference compound], the inhibition at 1 µM in data set [1] (1 µM compound) was under 5%. Testing at 100 µM in data set [1] (100 µM compound) gave an inhibition of 25%. For the same compound, the Papp at 4 h, 50 µM in data set [2] is 18.5 nm/s. Further, in data set [3], the “Protection against diet-induced obesity (body weight gain, lipogenesis in adipose tissue)” value is listed as “protect against diet-induced obesity in vivo”.
